For data set [1] the following is noted: from Literature 1; cited from earlier work.
The nature of data set [2]: Solubility and BCS classification of compound A. It counts as physicochemical.

SMILES strings stand for the structures.

In the case of `COC(=O)[C@H](c1ccccc1Cl)N1CCc2sccc2C1` [clopidogrel], in data set [1], the “share of clopidogrel metabolized to compound A after oral intake” value is recorded as 15%.

Turning to `COC(=O)[C@H](c1ccccc1Cl)N1CC[C@@H]2SC(=O)C=C2C1` [Compound A, methyl(S)-2-(2-chlorophenyl)-2-((S)-2-oxo-2,6,7,7a-tetrahydrothiophene [3,2-c]pyridin-5 (4H)-yl)acetate], the “BCS (Biopharmaceutics Classification System) class” value in data set [2] was “low solubility and high permeability”. Besides, in data set [2] (acetone), the solubility in acetone entry is reported as “very slightly soluble”. For the same compound, in data set [2] (ethanol), the solubility in ethanol entry is “slightly soluble”. Further, in data set [2] (methanol), the solubility in methanol result is “hardly soluble”. Besides, the solubility in toluene entry in data set [2] (toluene) is “almost insoluble”. In addition, the solubility in water entry in data set [2] (water) is listed as “very slightly soluble”.

The values are drawn from patent US20260007641A1, “PHARMACEUTICAL COMPOSITION FOR TREATING AND RESISTING BLOOD COAGULATION AND USE THEREOF” (CHENGDU SHIBEIKANG BIOMEDICAL TECHNOLOGY CO., LTD., priority 2022, published 2026).
